Assay results taken from publication PMC4401096 (Scientific Reports, 2015).
Where two headings read alike, the source gives them in different places.

Legend:
[1] = HLMs
Procedure: (§1) The standard incubation system for the UGT reaction included HLMs (5 mg of protein/mL), UDPGA (40 mM), Tris-HCl buffer (pH 7.4), MgCl2 (50 mM), 25 μg/mL alamethicin, and substrates in a final volume of 200 μL. The volume of organic solvent was less than 1%. After 60 min of incubation at 37°C, the reaction was terminated by adding 0.1 mL of methanol. The sample was then centrifuged at 20,000 g for 20 minutes to obtain the supernatant for LC-UV-ESI analysis.
(§2) To ensure that less than 10% of the substrate was metabolized in all incubations, different incubation times and protein concentration conditions were selected with 60 min of incubation and 0.15 to 0.75 mg of protein, to confirm the linear interval of metabolite turnover rates. The kinetic models used for analysis were Michaelis–Menten kinetics (eq. 1), biphasic kinetics (eq. 2) and inhibition kinetics (eq. 3)[32]. [drawing 1] [drawing 2] […] Ksi is the constant describing the substrate inhibition interaction. All of the incubations were performed in three independent experiments in duplicate. Kinetic constants were obtained using Origin 7.5 (OriginLab Corp., Northampton, MA) and were reported as the mean ± standard error (S.E.) of the parameter estimate.

[2] = 3-O-Glucuronide (M-1), TLMs
Procedure: as §1, §2

[3] = M-2 (16-O-glucuronidation), HIMs
Procedure: as §1, §2

[4] = DLMs
Procedure: as §1, §2

[5] = 16-O-Glucuronide (M-2), PLMs
[6] = RLMs
Procedure: as §1, §2

[7] = Species comparison of DACB glucuronidation in animal liver microsomes; format: in vitro ADME
[8] = MLMs
Procedure: as §1, §2

UGT1A4 = target: T1, UGT1A4 (Homo sapiens, UniProt P22310)
T1 sequence (P22310 29-534): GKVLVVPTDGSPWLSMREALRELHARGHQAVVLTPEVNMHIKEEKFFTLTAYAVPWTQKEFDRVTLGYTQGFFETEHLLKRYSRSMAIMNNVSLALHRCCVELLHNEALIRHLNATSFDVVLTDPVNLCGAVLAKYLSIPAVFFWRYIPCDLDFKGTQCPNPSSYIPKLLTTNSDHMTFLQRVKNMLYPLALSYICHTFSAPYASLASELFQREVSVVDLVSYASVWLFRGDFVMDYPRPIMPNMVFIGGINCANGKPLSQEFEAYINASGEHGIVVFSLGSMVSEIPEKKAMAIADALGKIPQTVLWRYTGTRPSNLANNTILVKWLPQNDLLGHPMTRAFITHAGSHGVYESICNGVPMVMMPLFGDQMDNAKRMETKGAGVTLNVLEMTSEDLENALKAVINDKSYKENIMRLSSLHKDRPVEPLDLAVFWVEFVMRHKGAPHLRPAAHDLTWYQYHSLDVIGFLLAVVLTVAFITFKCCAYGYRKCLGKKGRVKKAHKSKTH
Procedure: (§3) All of the incubations were performed for 60 min using HLMs with a concentration of 0.3 mg of protein/mL, 0.05 mg of protein/mL for UGT1A3 and 0.25 mg of protein/mL for UGT1A4. Similarly, for the UGT1A4 isoform, hecogenin (1–80 μM) was used as a specific inhibitor to determine the differences of inhibition effects between HLMs and UGT1A4.

UGT1A3 = target: T2, UGT1A3 (Homo sapiens, UniProt P35503)
T2 sequence (P35503 29-534): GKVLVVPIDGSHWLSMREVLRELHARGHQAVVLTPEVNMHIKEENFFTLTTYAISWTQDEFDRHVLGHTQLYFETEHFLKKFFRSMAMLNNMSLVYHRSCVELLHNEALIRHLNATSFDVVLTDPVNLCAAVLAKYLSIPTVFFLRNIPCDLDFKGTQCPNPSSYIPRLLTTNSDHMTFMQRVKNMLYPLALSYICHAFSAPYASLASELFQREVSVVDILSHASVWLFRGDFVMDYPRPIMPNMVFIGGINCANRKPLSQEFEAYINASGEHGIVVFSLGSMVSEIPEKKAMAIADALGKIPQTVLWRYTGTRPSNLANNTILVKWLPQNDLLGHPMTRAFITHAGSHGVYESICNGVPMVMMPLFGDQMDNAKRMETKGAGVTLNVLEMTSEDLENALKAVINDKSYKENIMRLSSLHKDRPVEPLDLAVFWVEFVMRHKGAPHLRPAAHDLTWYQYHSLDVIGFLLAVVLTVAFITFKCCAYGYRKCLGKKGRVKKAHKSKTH
Procedure: as §3

[9] = animal species liver microsomes
[10] = liver microsomes of various species

C[C@]12CC[C@H](O)C[C@H]1CC[C@@H]1[C@@H]2CC[C@]2(C)[C@@H](c3ccc(=O)oc3)[C@@H](O)[C@H]3O[C@]132 [DACB, desacetylcinobufagin]
Vmax ([1]; M-1 (3-O-glucuronidation)): 0.061 ± 0.002 nmol/min/mg | Vmax ([1]; M-2 (16-O-glucuronidation)): 0.074 ± 0.004 nmol/min/mg | Km [2]: 63.6 ± 5.33 µM | Vmax [2]: 0.106 ± 0.002 nmol/min/mg | Vmax [3]: 0.007 ± 0.002 nmol/min/mg | Vmax ([4]; 3-O-Glucuronide (M-1), biphasic kinetics, first line): 0.005 ± 0.001 nmol/min/mg | Vmax ([4]; 3-O-Glucuronide (M-1), biphasic kinetics, second line): 0.009 ± 0.001 nmol/min/mg | Vmax ([4]; 16-O-Glucuronide (M-2)): 0.111 ± 0.010 nmol/min/mg | Vmax [5]: 0.032 ± 0.001 nmol/min/mg | Vmax ([6]; 3-O-Glucuronide (M-1)): 0.107 ± 0.002 nmol/min/mg | Vmax ([6]; 16-O-Glucuronide (M-2)): 0.018 ± 0.001 nmol/min/mg | order of CLint activities of UGT1A3, M-2 formation [7, 9]: MLM > RLM > PLM > DLM | order of UGT1A4 activities by CLint values, M-1 formation [7, 9]: Rabbit > Monkey > Mouse > Dog > Pig | occurrence of 3-O-glucuronidation in species [7, 10]: occurs in DLMs, MLMs, MsLMs, RLMs and TLMs | occurrence of 16-O-glucuronidation in species [7, 10]: can occur in all species except RtLMs | Vmax ([8]; 3-O-Glucuronide (M-1)): 0.174 ± 0.008 nmol/min/mg | Vmax ([8]; 16-O-Glucuronide (M-2)): 0.288 ± 0.002 nmol/min/mg

CN1CCN(CCCN2c3ccccc3Sc3ccc(C(F)(F)F)cc32)CC1 [TFP, trifluoperazine]
inhibition of the 3-O-glucuronidation of DACB (UGT1A4): significantly inhibit

CC1(C)[C@@H](O)CC[C@]2(C)[C@H]3C(=O)C=C4[C@@H]5C[C@@](C)(C(=O)O)CC[C@]5(C)CC[C@@]4(C)[C@]3(C)CC[C@@H]12 [glycyrrhetinic acid]
inhibition of the formation of M-2 (16-O-glucuronate) (UGT1A3): significantly inhibited | IC50 values for M-2 formation, UGT1A3 compared with HLMs (UGT1A3; glycyrrhetinic acid 0–60 μM, UGT1A3 and HLMs): equal

hecogenin
inhibition of the 3-O-glucuronidation of DACB (UGT1A4): significantly inhibit | IC50 values for M-1 formation, UGT1A4 compared with HLMs (UGT1A4; hecogenin 1–80 μM, UGT1A4 and HLMs): similar
